Test results taken from BigSolDB 2.1.

COc1ccccc1N1CCN(CC(O)COc2cccc3ccccc23)CC1 (stereo not given)
solubility (mole fraction)
Details	288.15 K	293.15 K	298.15 K	303.15 K	308.15 K	313.15 K	318.15 K	323.15 K	328.15 K
in DMSO	–	0.0283	0.0323	0.0367	0.0416	0.0468	0.0527	0.059	0.066
in ethanol	0.00142	0.00163	0.00189	0.00216	0.00244	0.00277	0.00314	0.00355	0.00397
in isopropanol	0.000714	0.000827	0.000959	0.00111	0.00127	0.00145	0.00165	0.00186	0.00213
in water	2.07e-06	2.69e-06	3.46e-06	4.43e-06	5.65e-06	7.05e-06	8.85e-06	1.09e-05	1.37e-05
